Measurements as given in publication PMC5063900, “A phase 1 study of the safety, tolerability, pharmacokinetics, and pharmacodynamics of TAK-063, a selective PDE10A inhibitor” (Psychopharmacology, 2016).

Test: CNS Vital Signs (CNSVS) computerized cognition battery
Format: in vivo, human
Settings: for Cognitive flexibility domain score, Difference (TAK-063 LS mean - placebo LS mean, change from baseline) / Composite memory domain score, Difference (TAK-063 LS mean - placebo LS mean, change from baseline) / Executive functioning domain score, Difference (TAK-063 LS mean - placebo LS mean, change from baseline) / Processing speed domain score, Difference (TAK-063 LS mean - placebo LS mean, change from baseline) / Psychomotor speed domain score, Difference (TAK-063 LS mean - placebo LS mean, change from baseline) / Reaction time domain score, Difference (TAK-063 LS mean - placebo LS mean, change from baseline) / Reasoning domain score, Difference (TAK-063 LS mean - placebo LS mean, change from baseline) / Sustained attention domain score, Difference (TAK-063 LS mean - placebo LS mean, change from baseline) / Verbal memory domain score, Difference (TAK-063 LS mean - placebo LS mean, change from baseline) / Visual memory domain score, Difference (TAK-063 LS mean - placebo LS mean, change from baseline) / Working memory domain score, Difference (TAK-063 LS mean - placebo LS mean, change from baseline): 6 h postdose, fasting
Description: Cognitive flexibility, attention, executive function, memory, reasoning, motor control, psychomotor speed, reaction time, and information processing speed were assessed predose and at 2 and 6 h following TAK-063 treatment using the CNSVS computerized cognition battery. The CNSVS cognition battery is a well-validated, sensitive measure and included the following tests: verbal and visual memory (VBM and VIM) tests, finger-tapping test, symbol digit coding test, Stroop test, shifting attention test, the nonverbal reasoning test, and the 4-part continuous performance test (Gualtieri and Johnson [2006]). Standardized domain scores for cognitive flexibility, composite memory, executive functioning, processing speed, psychomotor speed, reaction time, reasoning, sustained attention, verbal memory, visual memory, and working memory were reported. In all domains, a decrease in the standardized domain score is indicative of impairment.
All statistical analyses were generated using SAS Version 9.2 (SAS, Cary, NC, USA). The PK parameters were derived using non-compartmental methods with WinNonlin Enterprise Version 6.3 (Pharsight Corp., Mountain View, CA, USA). Frequency or descriptive statistics were used for summary of data. Where indicated, percent coefficient of variation was included in the summary of continuous data. All statistical tests were 2-tailed at α = 0.05 level for significance unless otherwise stated. A power model was used to evaluate dose proportionality by race for fasted subjects; in the event of no observed race effect, dose proportionality was assessed for all subjects. To evaluate the food effect, a paired t test was performed on T max and natural log-transformed C max, and AUCs. An ANCOVA model with baseline scores and race as covariates was used to assess the effects of TAK-063 on CNSVS domain scores.

COc1cn(-c2ccc(-n3cccn3)cc2F)nc(-c2ccnn2-c2ccccc2)c1=O [TAK-063]
Cognitive flexibility domain score, Difference (TAK-063 LS mean - placebo LS mean, change from baseline) (3 mg): 2.9 | Composite memory domain score, Difference (TAK-063 LS mean - placebo LS mean, change from baseline) (3 mg): -1.4 | Executive functioning domain score, Difference (TAK-063 LS mean - placebo LS mean, change from baseline) (3 mg): 2.9 | Processing speed domain score, Difference (TAK-063 LS mean - placebo LS mean, change from baseline) (3 mg): 2.5 | Psychomotor speed domain score, Difference (TAK-063 LS mean - placebo LS mean, change from baseline) (3 mg): -1.8 | Reaction time domain score, Difference (TAK-063 LS mean - placebo LS mean, change from baseline) (3 mg): 1.5 | Reasoning domain score, Difference (TAK-063 LS mean - placebo LS mean, change from baseline) (3 mg): 6.9 | Sustained attention domain score, Difference (TAK-063 LS mean - placebo LS mean, change from baseline) (3 mg): 15.0 | Verbal memory domain score, Difference (TAK-063 LS mean - placebo LS mean, change from baseline) (3 mg): -4.8 | Visual memory domain score, Difference (TAK-063 LS mean - placebo LS mean, change from baseline) (3 mg): 4.5 | Working memory domain score, Difference (TAK-063 LS mean - placebo LS mean, change from baseline) (3 mg): 9.9 | Cognitive flexibility domain score, Difference (TAK-063 LS mean - placebo LS mean, change from baseline) (10 mg): -10.0 | Composite memory domain score, Difference (TAK-063 LS mean - placebo LS mean, change from baseline) (10 mg): -1.9 | Executive functioning domain score, Difference (TAK-063 LS mean - placebo LS mean, change from baseline) (10 mg): -10.0 | Processing speed domain score, Difference (TAK-063 LS mean - placebo LS mean, change from baseline) (10 mg): 0.2 | Psychomotor speed domain score, Difference (TAK-063 LS mean - placebo LS mean, change from baseline) (10 mg): -9.6 | Reaction time domain score, Difference (TAK-063 LS mean - placebo LS mean, change from baseline) (10 mg): -5.6 | Reasoning domain score, Difference (TAK-063 LS mean - placebo LS mean, change from baseline) (10 mg): 2.2 | Sustained attention domain score, Difference (TAK-063 LS mean - placebo LS mean, change from baseline) (10 mg): 3.6 | Verbal memory domain score, Difference (TAK-063 LS mean - placebo LS mean, change from baseline) (10 mg): 2.9 | Visual memory domain score, Difference (TAK-063 LS mean - placebo LS mean, change from baseline) (10 mg): -4.4 | Working memory domain score, Difference (TAK-063 LS mean - placebo LS mean, change from baseline) (10 mg): 2.3 | Cognitive flexibility domain score, Difference (TAK-063 LS mean - placebo LS mean, change from baseline) (30 mg): -1.9 | Composite memory domain score, Difference (TAK-063 LS mean - placebo LS mean, change from baseline) (30 mg): 7.5 | Executive functioning domain score, Difference (TAK-063 LS mean - placebo LS mean, change from baseline) (30 mg): -1.2 | Processing speed domain score, Difference (TAK-063 LS mean - placebo LS mean, change from baseline) (30 mg): 2.2 | Psychomotor speed domain score, Difference (TAK-063 LS mean - placebo LS mean, change from baseline) (30 mg): -3.7 | Reaction time domain score, Difference (TAK-063 LS mean - placebo LS mean, change from baseline) (30 mg): -2.8 | Reasoning domain score, Difference (TAK-063 LS mean - placebo LS mean, change from baseline) (30 mg): -0.6 | Sustained attention domain score, Difference (TAK-063 LS mean - placebo LS mean, change from baseline) (30 mg): 2.5 | Verbal memory domain score, Difference (TAK-063 LS mean - placebo LS mean, change from baseline) (30 mg): 3.8 | Visual memory domain score, Difference (TAK-063 LS mean - placebo LS mean, change from baseline) (30 mg): 8.3 | Working memory domain score, Difference (TAK-063 LS mean - placebo LS mean, change from baseline) (30 mg): -2.2 | Cognitive flexibility domain score, Difference (TAK-063 LS mean - placebo LS mean, change from baseline) (100 mg): -5.6 | Composite memory domain score, Difference (TAK-063 LS mean - placebo LS mean, change from baseline) (100 mg): -13.5 | Executive functioning domain score, Difference (TAK-063 LS mean - placebo LS mean, change from baseline) (100 mg): -2.2 | Processing speed domain score, Difference (TAK-063 LS mean - placebo LS mean, change from baseline) (100 mg): -4.7 | Psychomotor speed domain score, Difference (TAK-063 LS mean - placebo LS mean, change from baseline) (100 mg): -11.4 | Reaction time domain score, Difference (TAK-063 LS mean - placebo LS mean, change from baseline) (100 mg): -3.4 | Reasoning domain score, Difference (TAK-063 LS mean - placebo LS mean, change from baseline) (100 mg): 2.0 | Sustained attention domain score, Difference (TAK-063 LS mean - placebo LS mean, change from baseline) (100 mg): -0.1 | Verbal memory domain score, Difference (TAK-063 LS mean - placebo LS mean, change from baseline) (100 mg): -12.0 | Visual memory domain score, Difference (TAK-063 LS mean - placebo LS mean, change from baseline) (100 mg): -8.3 | Working memory domain score, Difference (TAK-063 LS mean - placebo LS mean, change from baseline) (100 mg): -6.2 | Cognitive flexibility domain score, Difference (TAK-063 LS mean - placebo LS mean, change from baseline) (300 mg): -28.4 | Composite memory domain score, Difference (TAK-063 LS mean - placebo LS mean, change from baseline) (300 mg): -19.6 | Executive functioning domain score, Difference (TAK-063 LS mean - placebo LS mean, change from baseline) (300 mg): -26.4 | Processing speed domain score, Difference (TAK-063 LS mean - placebo LS mean, change from baseline) (300 mg): -1.5 | Psychomotor speed domain score, Difference (TAK-063 LS mean - placebo LS mean, change from baseline) (300 mg): -11.1 | Reaction time domain score, Difference (TAK-063 LS mean - placebo LS mean, change from baseline) (300 mg): -4.1 | Reasoning domain score, Difference (TAK-063 LS mean - placebo LS mean, change from baseline) (300 mg): -2.0 | Sustained attention domain score, Difference (TAK-063 LS mean - placebo LS mean, change from baseline) (300 mg): -8.1 | Verbal memory domain score, Difference (TAK-063 LS mean - placebo LS mean, change from baseline) (300 mg): -17.3 | Visual memory domain score, Difference (TAK-063 LS mean - placebo LS mean, change from baseline) (300 mg): -14.0 | Working memory domain score, Difference (TAK-063 LS mean - placebo LS mean, change from baseline) (300 mg): -1.4 | Cognitive flexibility domain score, Difference (TAK-063 LS mean - placebo LS mean, change from baseline) (1000 mg): -15.6 | Composite memory domain score, Difference (TAK-063 LS mean - placebo LS mean, change from baseline) (1000 mg): -8.6 | Executive functioning domain score, Difference (TAK-063 LS mean - placebo LS mean, change from baseline) (1000 mg): -14.1 | Processing speed domain score, Difference (TAK-063 LS mean - placebo LS mean, change from baseline) (1000 mg): -19.7 | Psychomotor speed domain score, Difference (TAK-063 LS mean - placebo LS mean, change from baseline) (1000 mg): -22.7 | Reaction time domain score, Difference (TAK-063 LS mean - placebo LS mean, change from baseline) (1000 mg): -16.5 | Reasoning domain score, Difference (TAK-063 LS mean - placebo LS mean, change from baseline) (1000 mg): -0.1 | Sustained attention domain score, Difference (TAK-063 LS mean - placebo LS mean, change from baseline) (1000 mg): 0.7 | Verbal memory domain score, Difference (TAK-063 LS mean - placebo LS mean, change from baseline) (1000 mg): -5.8 | Visual memory domain score, Difference (TAK-063 LS mean - placebo LS mean, change from baseline) (1000 mg): -6.0 | Working memory domain score, Difference (TAK-063 LS mean - placebo LS mean, change from baseline) (1000 mg): -2.7 | Single dose causing impairments in cognitive flexibility, executive functioning, processing and psychomotor speed, and visual memory (single dose, CNSVS): ≥ 100 mg
